In article PMC7136958, “Targeting the pregnane X receptor using microbial metabolite mimicry” (EMBO Molecular Medicine, 2020):
Values joined by “and” are separate entries in the source; they are usually repeats but may differ in a detail not shown here. Equal entries are not always repeated.

Columns and labels:
[1] = target: T1, PXR (Homo sapiens, UniProt O75469); test: PXR reporter (p3A4-luc luciferase) assay in LS180 cells transiently transfected with wild-type PXR; details: for FOLD INDUCTION of PXR reporter luciferase activity: 24 h, over UT
T1 sequence (O75469 1-434): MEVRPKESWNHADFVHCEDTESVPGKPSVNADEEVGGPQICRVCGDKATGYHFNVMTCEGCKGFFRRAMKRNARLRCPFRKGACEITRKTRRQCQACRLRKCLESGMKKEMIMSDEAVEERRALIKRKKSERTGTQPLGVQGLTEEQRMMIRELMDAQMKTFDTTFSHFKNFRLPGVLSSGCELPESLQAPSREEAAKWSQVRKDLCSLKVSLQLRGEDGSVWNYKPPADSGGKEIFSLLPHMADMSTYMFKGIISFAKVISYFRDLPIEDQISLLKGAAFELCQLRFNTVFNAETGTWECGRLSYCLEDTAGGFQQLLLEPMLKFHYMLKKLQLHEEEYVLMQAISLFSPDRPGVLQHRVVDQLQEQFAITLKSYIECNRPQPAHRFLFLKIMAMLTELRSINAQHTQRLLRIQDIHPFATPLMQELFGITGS
Experimental: Incubations were performed in four technical replicates. After the treatments, cells were lysed and luciferase activity was measured on Tecan Infinite M200 Pro plate reader (Schoeller Instruments, Prague, Czech Republic). The data are expressed as fold induction ± SD of luciferase activity over the control cells (agonistic mode—in the absence of a model ligand) or as a percentage of maximal activation ± SD (antagonistic mode—in the presence of a model ligand). […] For all the transfection experiments, specifically multiplexed transfections, the control wells were mock‐transfected ([…]). However, to exclude non‐specific binding of PXR (or other factors) upstream of the luciferase gene within non‐PXR‐binding elements, we performed pilot experiments in different cell passages (P11, P14, and P17) of LS174T cells using a mock luciferase plasmid (luciferase not containing an upstream PXR‐binding element of the CYP3A4 promoter).

[2] = target: T2, AhR (Homo sapiens, UniProt P35869); test: AhR reporter assay, HepG2 cells stably expressing pCYP1A1 luciferase (AZ-AHR); format: cell-based; details: for FOLD INDUCTION (AZ-AHR luciferase): AZ-AHR cells, fold vs DMSO
T2 construct: endogenous in cells; host or cells: AZ-AHR (HepG2)
T2 sequence (P35869 11-848): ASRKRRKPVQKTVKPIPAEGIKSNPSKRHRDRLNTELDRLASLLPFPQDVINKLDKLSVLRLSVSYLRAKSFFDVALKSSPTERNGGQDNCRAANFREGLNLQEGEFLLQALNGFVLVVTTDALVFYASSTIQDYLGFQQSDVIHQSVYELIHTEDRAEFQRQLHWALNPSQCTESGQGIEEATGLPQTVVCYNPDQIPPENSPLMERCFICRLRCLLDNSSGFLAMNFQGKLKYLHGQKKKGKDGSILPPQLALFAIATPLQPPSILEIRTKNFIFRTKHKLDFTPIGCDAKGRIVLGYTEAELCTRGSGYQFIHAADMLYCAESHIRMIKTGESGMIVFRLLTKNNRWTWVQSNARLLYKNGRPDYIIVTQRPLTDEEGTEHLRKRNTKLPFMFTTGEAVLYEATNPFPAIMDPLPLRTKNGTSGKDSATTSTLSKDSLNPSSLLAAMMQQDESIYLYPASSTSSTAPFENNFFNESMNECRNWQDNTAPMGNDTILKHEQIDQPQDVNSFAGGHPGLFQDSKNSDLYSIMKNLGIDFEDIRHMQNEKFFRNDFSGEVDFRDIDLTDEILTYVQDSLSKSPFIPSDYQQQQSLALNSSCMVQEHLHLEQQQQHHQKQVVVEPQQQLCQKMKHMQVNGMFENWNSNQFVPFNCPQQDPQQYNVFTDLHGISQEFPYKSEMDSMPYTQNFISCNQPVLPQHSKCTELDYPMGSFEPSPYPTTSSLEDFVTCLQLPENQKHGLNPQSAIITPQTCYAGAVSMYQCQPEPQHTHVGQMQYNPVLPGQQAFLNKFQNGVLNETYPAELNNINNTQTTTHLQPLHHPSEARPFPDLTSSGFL
Experimental: Incubations were performed in four technical replicates.

[3] = test system: IL-8 mRNA; test: TNF-α-induced IL-8 mRNA in human colonic enteroids (Calgary Protocol); format: cell-based; details: 10 μM, pair-wise vs DMSO
Experimental: Samples were immediately processed to yield isolated colonic crypts as previously described (Fernando et al, 2017). Isolated colonic crypts were embedded in Matrigel® (Corning) and cultured in Intesticult^tm Organoid Growth Media. Human organoids were pretreated for 6 h with either FKK5, FKK6, FKK9, or vehicle (DMSO), then stimulated with human recombinant TNF‐alpha in the presence of either treatment for an additional 12 h. Organoids were washed in PBS, disrupted in Tri Reagent® (Sigma, Oakville, ON, CAN), and frozen at −80°C. After thawing, chloroform was added, samples were centrifuged for 15 min, and the resulting aqueous phase was then added to equal volumes of 70% ethanol and further processed using the RNeasy mini kit (Qiagen). cDNA was synthesized using the QuantiTect RT kit (Qiagen) according to the manufacturer's protocol. Resulting cDNA was used as a template for quantitative real‐time PCR using Perfecta SYBR Green FastMix with ROX (QuantaBio). PCR and analysis were performed using a StepOne PCR System (Applied Biosystems). Gene expression was calculated relative to β‐actin expression and expressed as fold change of control. The primers used were as follows: Human®‐Actin (NM_001101), Human CYP3A4 (NM_001202855), and Human ABCB1 (NM_000927).

[4] = test system: PXR occupancy of CYP3A4 and MDR1 promoter; test: Chromatin immunoprecipitation (ChIP) in PXR-transfected LS174T cells; details: 10 μM; relative to DMSO = 1; each column a repeat experiment (Fig 1d)
Experimental: LS174T cells were transfected with pSG5‐PXR (2 μg/plate/1 × 10^7 cells). […] Briefly, cells were chemically cross‐linked with formaldehyde in culture media for 15 min at room temperature. […] Cells were rinsed twice with cold PBS (phosphate‐buffered saline) (pH 7.5) and scraped in PBS supplemented with PIC (protease inhibitor cocktail).
Cell pellets were collected and immediately resuspended in immunoprecipitation (IP) buffer (150 mM NaCl (sodium chloride), 50 mM Tris–HCl at pH 7.5, 5 mM EDTA (ethylenediaminetetraacetic acid), 0.5% NP‐40, 1% Triton X‐100). The nuclei were centrifuged at 12,000 × g for 1 min and resuspended in fresh IP buffer. Chromatin was sheared by sonication to an average size of 0.2‐0.9 kb. Lysates were cleared by centrifugation at 12,000 × g for 10 min. […] 10% (wt/vol) Chelex 100 was added to the beads followed by boiling of the suspension and centrifugation at 12,000 × g for 1 min to obtain chromatin.
Purified chromatin DNA was used to perform RT–qPCR. […] Data were analyzed using SDS 2.2.1 program (ABI Biotechnology).

[5] = target: T1, PXR; test: Ligand efficiency metric (LEM) analysis; design: expressed in transfected cells; host or cells: LS180; details: NSEI-nBEI plane, from PXR reporter Emax
Description: Ligand efficiency metric (LEM) analysis for FKK ligand efficiency. The ligand efficiency metrics (LEMs) of compounds FKK1 to 10 and FKK999 as a reference compound, have been analyzed by using a web tool named AtlasCBS which represents LEMs as variables for a Cartesian mapping of chemico-biological space (CBS). In particular, Cartesian planes combine three critical variables in drug discovery (affinity, size, and polarity) into easily interpretable ‘efficiency planes’ useful to guide a drug discovery process. In the Cartesian plane, each target:ligand pair appears as a point whose coordinates are given by pairs of values derived from the affinity of the ligand toward the target (Ki or equivalent) in relation to its size (MW or number of non-hydrogen atoms NHA), and its polarity (expressed as Polar Surface Area, PSA, or number of polar atoms, NPOL = count of N + O). The first one represents a size-related LEM and the second a polarity-related LEM. Consistently, compounds that correspond to marketed drugs typically occupy the upper right quadrant of the plots (‘Nort h-East’ direction, NE), where both the efficiency -pe r-size and efficiency -per-polarity are optimized 1,2.
Our results are represented in the efficiency plane NS EI-nBEI where:
NSEI = –log Ki/NPOL (N, O) = pKi/NPOL (N, O)
As a measure of activity of the above compounds, the reciprocal of the percentage efficacy values (1/Efficacy [%]) obtained in the PXR-dependent luciferase activity test (Emax values from Fig. 1) were used in lieu of the affinity constants (Ki in the above equations). FKK4 would appear as the most efficient compound since it is placed in the NE panel (GL, unpublished observations). However, this congener might suffer from metabolic liability with its N-protecting group possibly generating toxic aldehydes by oxidative cleavage in vivo. Unambiguously, the two most efficient compounds besides FKK4 are FKK5 and FKK6 which were therefore considered suitable lead compounds, as al so

[6] = test system: rats; design: method as in Thermo Fisher Scientific Safety Sheet data; details: oral in rats; ref Thermo Fisher Scientific Safety Sheet data; cited from earlier work

CCOCn1c(C(O)(Cc2cc3ccccc3[nH]2)c2ccncc2)cc2ccccc21 (racemic) [FKK9]
aver (mean luciferase signal of H1-H4) ([1]; 1 nM): 4233.7 | FOLD INDUCTION of PXR reporter luciferase activity ([1]; 1 nM): 1.1 fold | aver (mean luciferase signal of H1-H4) ([1]; 10 nM): 4676.8 | FOLD INDUCTION of PXR reporter luciferase activity ([1]; 10 nM): 1.2 fold | aver (mean luciferase signal of H1-H4) ([1]; 100 nM): 5944.0 | FOLD INDUCTION of PXR reporter luciferase activity ([1]; 100 nM): 1.6 fold | aver (mean luciferase signal of H1-H4) ([1]; 1 uM): 19145.3 | FOLD INDUCTION of PXR reporter luciferase activity ([1]; 1 uM): 5.0 fold | aver (mean luciferase signal of H1-H4) ([1]; 10 uM): 98175.8 | FOLD INDUCTION of PXR reporter luciferase activity ([1]; 10 uM): 25.8 fold | aver (mean luciferase signal of H1-H4) ([1]; 25 uM): 68593.5 | FOLD INDUCTION of PXR reporter luciferase activity ([1]; 25 uM): 18.0 fold | AhR activation ([2]; 10 μM): > 100 fold | FOLD INDUCTION (AZ-AHR luciferase) ([2]; 1 nM): 0.6 fold | FOLD INDUCTION (AZ-AHR luciferase) ([2]; 10 nM): 0.4 fold | FOLD INDUCTION (AZ-AHR luciferase) ([2]; 100 nM): 1.3 fold | FOLD INDUCTION (AZ-AHR luciferase) ([2]; 1µM): 15.9 fold | FOLD INDUCTION (AZ-AHR luciferase) ([2]; 10 µM): 584.9 fold | TNF-α-induced IL-8 mRNA levels [3]: did not show significant effects | CYP3A4 Fold Expression (2-ΔΔCt) [4]: 0.943 and 0.9893 and 1.172 and 1.777

CC#CC(O)(c1ccncc1)c1cc2ccccc2n1COCC (stereo not shown) [FKK4]
aver (mean luciferase signal of H1-H4) ([1]; 1 nM): 4365.5 | FOLD INDUCTION of PXR reporter luciferase activity ([1]; 1 nM): 1.4 fold | aver (mean luciferase signal of H1-H4) ([1]; 10 nM): 4279.3 | FOLD INDUCTION of PXR reporter luciferase activity ([1]; 10 nM): 1.3 fold | aver (mean luciferase signal of H1-H4) ([1]; 100 nM): 5499.3 | FOLD INDUCTION of PXR reporter luciferase activity ([1]; 100 nM): 1.7 fold | aver (mean luciferase signal of H1-H4) ([1]; 1 uM): 21392.8 | FOLD INDUCTION of PXR reporter luciferase activity ([1]; 1 uM): 6.7 fold | aver (mean luciferase signal of H1-H4) ([1]; 10 uM): 102793.8 | FOLD INDUCTION of PXR reporter luciferase activity ([1]; 10 uM): 32.2 fold | aver (mean luciferase signal of H1-H4) ([1]; 25 uM): 122639.5 | FOLD INDUCTION of PXR reporter luciferase activity ([1]; 25 uM): 38.4 fold | AhR activation (in words) [2]: variable degrees of dose‐dependent AhR activation profiles | FOLD INDUCTION (AZ-AHR luciferase) ([2]; 1 nM): 0.8 fold | FOLD INDUCTION (AZ-AHR luciferase) ([2]; 10 nM): 0.644 fold | FOLD INDUCTION (AZ-AHR luciferase) ([2]; 100 nM): 0.8 fold | FOLD INDUCTION (AZ-AHR luciferase) ([2]; 1µM): 1.2 fold | FOLD INDUCTION (AZ-AHR luciferase) ([2]; 10 µM): 7.1 fold | LEM analysis prediction [5]: efficient agonist

c1ccc2[nH]ccc2c1 [indole]
LD50 [6]: ~ 1 g/kg
